Results taken from publication PMC9798004 (Frontiers in Psychiatry, 2022).
Entries after “also recorded” stand apart in the source; their conditions may differ.

Tests used:
Assay in all cases: PathHunter β-arrestin assay
Type in all cases: cell-based
CCR10 = molecular target: T1, CCR10 (Homo sapiens, UniProt P46092); details: antagonist mode vs EC80 of control agonist, 10-point curve
T1 sequence (P46092 1-362): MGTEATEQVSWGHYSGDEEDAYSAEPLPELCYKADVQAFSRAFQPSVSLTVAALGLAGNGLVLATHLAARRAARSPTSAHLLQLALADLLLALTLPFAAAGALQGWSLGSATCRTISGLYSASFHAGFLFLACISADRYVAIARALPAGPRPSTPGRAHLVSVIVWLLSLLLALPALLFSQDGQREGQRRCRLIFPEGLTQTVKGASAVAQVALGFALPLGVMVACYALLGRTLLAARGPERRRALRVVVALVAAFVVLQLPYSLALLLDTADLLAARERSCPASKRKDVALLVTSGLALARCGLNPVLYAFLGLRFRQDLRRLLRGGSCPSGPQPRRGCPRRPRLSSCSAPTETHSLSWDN
Method in brief: (§1)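 10-pt CRC, 1.5–30 μM, technical replicate; antagonist mode vs agonist at EC80 where applicable. Agonist and antagonist curves run in parallel, Z' >0.5. RC50 by four-parameter fit of normalized data.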

CCR4 = molecular target: T2, CCR4 (Homo sapiens, UniProt P51679); details: antagonist mode vs EC80 of control agonist, 10-point curve
T2 sequence (P51679 1-360): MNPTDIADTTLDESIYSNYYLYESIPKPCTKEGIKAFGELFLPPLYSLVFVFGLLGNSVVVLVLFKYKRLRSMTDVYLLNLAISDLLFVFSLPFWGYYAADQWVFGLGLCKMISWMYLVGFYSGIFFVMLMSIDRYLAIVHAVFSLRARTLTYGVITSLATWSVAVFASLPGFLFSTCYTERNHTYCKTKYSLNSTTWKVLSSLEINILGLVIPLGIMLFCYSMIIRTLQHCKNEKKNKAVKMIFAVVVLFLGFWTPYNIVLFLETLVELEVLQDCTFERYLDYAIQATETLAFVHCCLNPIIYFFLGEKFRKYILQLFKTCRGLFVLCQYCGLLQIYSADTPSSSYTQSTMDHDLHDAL

CCR6 = molecular target: T3, CCR6 (Homo sapiens, UniProt P51684); details: antagonist mode, up to 30 μM
T3 construct: purchased Eurofins DiscoverX (PathHunter gpcrMAX)
T3 sequence (P51684 1-374): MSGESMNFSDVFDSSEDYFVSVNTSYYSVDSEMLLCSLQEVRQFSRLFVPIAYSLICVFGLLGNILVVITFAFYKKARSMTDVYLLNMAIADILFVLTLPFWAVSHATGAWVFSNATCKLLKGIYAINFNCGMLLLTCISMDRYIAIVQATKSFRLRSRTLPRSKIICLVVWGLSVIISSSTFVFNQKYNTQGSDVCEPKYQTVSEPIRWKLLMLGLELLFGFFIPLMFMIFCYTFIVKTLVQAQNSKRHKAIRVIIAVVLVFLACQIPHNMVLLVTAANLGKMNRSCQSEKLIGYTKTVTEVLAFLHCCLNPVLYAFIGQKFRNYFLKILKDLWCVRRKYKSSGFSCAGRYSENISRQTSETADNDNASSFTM

CCR8 = CCR8 (Homo sapiens, UniProt P51685); details: antagonist mode vs EC80 of control agonist, 10-point curve
CCR9 = molecular target: T4, CCR9 (Homo sapiens, UniProt P51686); details: antagonist mode, up to 30 μM
T4 construct: purchased Eurofins DiscoverX (PathHunter gpcrMAX)
T4 sequence (P51686 1-369): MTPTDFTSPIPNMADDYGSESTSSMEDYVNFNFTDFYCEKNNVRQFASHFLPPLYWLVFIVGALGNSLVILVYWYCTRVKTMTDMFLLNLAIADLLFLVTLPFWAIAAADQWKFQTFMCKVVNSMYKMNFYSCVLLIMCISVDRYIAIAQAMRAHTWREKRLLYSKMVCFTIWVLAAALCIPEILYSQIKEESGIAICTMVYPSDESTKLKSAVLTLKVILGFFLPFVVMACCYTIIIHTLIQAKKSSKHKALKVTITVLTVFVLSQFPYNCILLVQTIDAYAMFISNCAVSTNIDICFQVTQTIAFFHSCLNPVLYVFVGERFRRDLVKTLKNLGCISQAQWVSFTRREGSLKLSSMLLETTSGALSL

GLP2R = molecular target: T5, GLP2R (Homo sapiens, UniProt O95838); details: antagonist mode vs EC80 of control agonist, 10-point curve
T5 sequence (O95838 1-553): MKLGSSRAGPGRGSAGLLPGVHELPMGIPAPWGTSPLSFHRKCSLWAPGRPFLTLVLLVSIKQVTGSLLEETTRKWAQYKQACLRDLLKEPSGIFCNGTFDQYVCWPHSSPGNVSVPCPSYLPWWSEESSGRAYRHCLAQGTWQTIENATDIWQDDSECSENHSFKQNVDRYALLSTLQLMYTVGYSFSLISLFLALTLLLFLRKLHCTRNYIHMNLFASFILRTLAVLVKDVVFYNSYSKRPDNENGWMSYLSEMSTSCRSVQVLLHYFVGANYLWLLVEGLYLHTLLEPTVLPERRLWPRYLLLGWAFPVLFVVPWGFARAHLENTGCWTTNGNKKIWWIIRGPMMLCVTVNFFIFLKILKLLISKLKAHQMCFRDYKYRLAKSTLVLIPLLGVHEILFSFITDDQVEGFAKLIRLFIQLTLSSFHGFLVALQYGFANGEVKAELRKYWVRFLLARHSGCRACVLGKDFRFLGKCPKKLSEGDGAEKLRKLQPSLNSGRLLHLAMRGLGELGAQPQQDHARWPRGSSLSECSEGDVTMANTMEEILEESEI
Method in brief: as §1

MRGPRX2 = molecular target: T6, MRGPRX2 (Homo sapiens, UniProt Q96LB1); details: antagonist mode vs EC80 of control agonist, 10-point curve
T6 sequence (Q96LB1 1-330): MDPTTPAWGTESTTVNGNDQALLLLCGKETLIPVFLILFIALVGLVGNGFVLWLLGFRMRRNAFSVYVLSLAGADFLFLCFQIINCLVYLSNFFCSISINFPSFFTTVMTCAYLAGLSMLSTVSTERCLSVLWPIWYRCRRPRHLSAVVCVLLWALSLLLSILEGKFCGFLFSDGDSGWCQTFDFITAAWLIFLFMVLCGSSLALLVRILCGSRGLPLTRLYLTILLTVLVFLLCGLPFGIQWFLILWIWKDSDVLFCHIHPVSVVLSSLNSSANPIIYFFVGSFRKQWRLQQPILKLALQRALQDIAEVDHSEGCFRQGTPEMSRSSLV

P2RY6 = P2RY6 (Homo sapiens, UniProt Q15077); details: antagonist mode, up to 30 μM
PTGER4 = PTGER4 (Homo sapiens, UniProt P35408); details: antagonist mode vs EC80 of control agonist, 10-point curve
Sequence of PTGER4 (P35408 whole entry): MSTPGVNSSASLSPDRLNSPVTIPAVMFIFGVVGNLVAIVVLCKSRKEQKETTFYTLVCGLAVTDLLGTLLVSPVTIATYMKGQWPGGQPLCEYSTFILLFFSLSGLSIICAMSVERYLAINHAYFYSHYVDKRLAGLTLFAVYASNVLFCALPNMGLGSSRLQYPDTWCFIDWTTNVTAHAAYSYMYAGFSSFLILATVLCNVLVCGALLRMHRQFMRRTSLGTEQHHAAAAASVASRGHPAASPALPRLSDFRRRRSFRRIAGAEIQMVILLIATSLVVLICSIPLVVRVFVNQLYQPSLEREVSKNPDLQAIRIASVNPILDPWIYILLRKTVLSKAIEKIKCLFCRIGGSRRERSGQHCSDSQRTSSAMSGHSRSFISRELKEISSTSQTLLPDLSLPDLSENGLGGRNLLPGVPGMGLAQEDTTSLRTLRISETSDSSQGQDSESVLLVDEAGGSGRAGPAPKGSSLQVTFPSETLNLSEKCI

Sequence of CCR8 (P51685 whole entry): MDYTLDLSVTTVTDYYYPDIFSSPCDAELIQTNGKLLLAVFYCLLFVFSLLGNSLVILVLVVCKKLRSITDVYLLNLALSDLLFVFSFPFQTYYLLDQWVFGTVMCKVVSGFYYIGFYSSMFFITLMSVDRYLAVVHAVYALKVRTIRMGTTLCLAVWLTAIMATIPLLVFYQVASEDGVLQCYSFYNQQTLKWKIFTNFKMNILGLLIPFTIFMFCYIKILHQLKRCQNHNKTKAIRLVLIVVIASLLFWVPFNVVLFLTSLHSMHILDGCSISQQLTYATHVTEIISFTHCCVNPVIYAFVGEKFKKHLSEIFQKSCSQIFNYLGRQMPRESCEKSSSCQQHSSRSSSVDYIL
Sequence of P2RY6 (Q15077 whole entry): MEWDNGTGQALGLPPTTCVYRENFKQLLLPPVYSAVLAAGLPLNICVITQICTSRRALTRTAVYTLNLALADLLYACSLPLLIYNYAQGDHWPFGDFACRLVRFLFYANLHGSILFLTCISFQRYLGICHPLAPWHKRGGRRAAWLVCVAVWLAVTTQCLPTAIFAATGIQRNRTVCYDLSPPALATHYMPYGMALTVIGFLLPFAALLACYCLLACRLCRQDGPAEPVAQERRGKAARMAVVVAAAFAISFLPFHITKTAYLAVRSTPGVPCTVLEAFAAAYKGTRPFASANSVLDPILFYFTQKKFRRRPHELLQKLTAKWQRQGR

## COC(=O)[C@@H](NC(=O)c1nn(Cc2ccc(F)cc2)c2ccccc12)C(C)C [AMB-FUBINACA]
CCR10
  IC50: 12.3 µM
CCR4
  IC50: 11.5 µM
CCR6
  inhibitory activity in concentration-response: Activity was only observed at the highest concentration (30 μM)
CCR8
  IC50: 7.99 µM
CCR9
  inhibitory activity in concentration-response: Activity was only observed at the highest concentration (30 μM); also recorded: only inhibited at the highest 30 μM concentration
GLP2R
  IC50: 13.1 µM
MRGPRX2
  IC50: 11.8 µM
P2RY6
  inhibitory activity in concentration-response: Activity was only observed at the highest concentration (30 μM)
PTGER4
  IC50: 3.13 µM
